According to patent USRE32868E, “Antihyperlipidemic compositions” (Research Corporation, priority 1985, dated 1989):

System: mice
Test: Acute toxicity (LD50) in mice
Format: in vivo
Settings: 2 g/kg
Description: They also are non-toxic. […] Moreover, there is no evidence that the weight of any of the major organs is altered as a result of treatment with compounds used in the invention.

CC(=O)CN1C(=O)c2ccccc2C1=O [1-N--Phthalimidopropan-2-one]
deaths: no deaths were observed
